The text below walks through data of US12268694B2, “Combination pharmaceutical agents as RSV inhibitors” (Enanta Pharmaceuticals, Inc., priority 2017, dated 2025).

Usually EC50 stands for the midpoint of the concentration-response curve.

The first assay deals with genotype A, "Long" strain RSV. The experiment in a line: RSV-A assay: CPE protection in HEp-2 cells, ATPlite readout. The class given is cell-based, human respiratory syncytial virus. Particulars: HEp-2 cells, RSV-A Long strain, ATPlite readout; read-out: Human RSV-A (“Long” strain) EC50. Summed up:
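HEp-2 cells (8,000/well) with 2-fold compound dilutions in duplicate, infected with Long-strain RSV at MOI 0.1 and incubated 5 days. Cell ATP measured by ATPlite luminescence to give EC50; uninfected parallel plate gives CC50.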
For orientation: ATP-based viability assays read luminescence as a measure of living cells.
`O=C1Nc2c(F)cccc2C(c2ccccc2)=N[C@@H]1Nc1nnc(-c2ncc(C(F)(F)F)cc2N2CCOCC2)o1` [Example 360]: the EC50 is under 400 nM.

The same assay, now with this note: human respiratory syncytial virus, HEp-2, read-out: Human RSV-A (“Long” strain) EC50.
On to `CC(C)(O)CNc1cc(C(F)(F)F)cnc1-c1nnc(N[C@H]2N=C(c3ccccc3)c3ccccc3NC2=O)o1` [Example 297], for which the EC50 was under 400 nM.

As to `COCCn1c(-c2nnc(N[C@H]3N=C(c4ccccc4)c4ccccc4NC3=O)o2)nc2ccccc21` [Example 298], the EC50 was over 800 nM.

In the case of `O=C1Nc2ccccc2C(c2ccccc2)=N[C@@H]1Nc1nnc(-c2ncc(F)cc2N2CC3CCC(C2)O3)o1` [Example 299], the EC50 is under 400 nM.

On to `C[C@@H]1COCCN1c1cc(C#N)cnc1-c1nnc(N[C@H]2N=C(c3ccccc3)c3ccccc3NC2=O)o1` [Example 301], for which the EC50 was under 400 nM.

`CN(C)c1cc(C(F)(F)F)cnc1-c1nnc(N[C@H]2N=C(c3ccccc3)c3ccccc3NC2=O)o1` [Example 302]: the concentration giving a half-maximal response (EC50) was over 800 nM.

As to `COCCNc1cc(C(F)(F)F)cnc1-c1nnc(N[C@H]2N=C(c3ccccc3)c3ccccc3NC2=O)o1` [Example 305], the EC50 is under 400 nM.

Consider `COCCn1ccnc1-c1nnc(N[C@H]2N=C(c3ccccc3)c3ccccc3NC2=O)o1` [Example 306], for which the EC50 was over 800 nM.

With `CNc1cc(C(F)(F)F)cnc1-c1nnc(N[C@H]2N=C(c3ccccc3)c3ccccc3NC2=O)o1` [Example 307], the EC50 is over 800 nM.

For the compound `CN(CC(C)(C)O)c1cc(C(F)(F)F)cnc1-c1nnc(N[C@H]2N=C(c3ccccc3)c3ccccc3NC2=O)o1` [Example 308], the concentration giving a half-maximal response (EC50) was over 800 nM.

On to `N#Cc1ccc(-c2nnc(N[C@H]3N=C(c4ccccc4)c4ccccc4NC3=O)o2)c(-c2ccsc2)c1` [Example 309], for which the concentration for a half-maximal effect (EC50) is over 800 nM.

Take `COCCn1nccc1-c1nnc(N[C@H]2N=C(c3ccccc3)c3ccccc3NC2=O)o1` [Example 310]: the EC50 is over 800 nM.

As to `C#Cc1cnc(-c2nnc(N[C@H]3N=C(c4ccccc4)c4ccccc4NC3=O)o2)c(N2CCOCC2)c1` [Example 311], the half-maximal effective concentration (EC50) is under 400 nM.

Regarding `O=C1Nc2ccccc2C(c2ccccc2)=N[C@@H]1Nc1nnc(-c2ncc(C3=CCCCC3)cc2N2CCOCC2)o1` [Example 312], the EC50 lay within 400 to 800 nM.

Take `O=C1Nc2ccccc2C(c2ccccc2)=N[C@@H]1Nc1nnc(-c2ncc(C3CCCCC3)cc2N2CCOCC2)o1` [Example 313]: the EC50 is under 400 nM.

Regarding `O=C1Nc2ccccc2C(c2ccccc2)=N[C@@H]1Nc1nnc(-c2ncc(N3CCCC3)cc2N2CCOCC2)o1` [Example 314], the EC50 is under 400 nM.

As to `Cn1cc(-c2cc(C#N)ccc2-c2nnc(N[C@H]3N=C(c4ccccc4)c4ccccc4NC3=O)o2)ccc1=O` [Example 315], the concentration for a half-maximal effect (EC50) was over 800 nM.

Turning to `O=C1Nc2ccccc2C(c2ccccc2)=N[C@@H]1Nc1nnc(-c2ncc3ccccc3c2N2CCOCC2)o1` [Example 316], the half-maximal effective concentration (EC50) is over 800 nM.

Consider `O=C1Nc2ccccc2C(c2ccccc2)=N[C@@H]1Nc1nnc(-c2ccc(N3CCCC3)cc2N2CCOCC2)o1` [Example 317], for which the EC50 is under 400 nM.

Consider `O=C1Nc2ccccc2C(c2ccccc2)=N[C@@H]1Nc1nnc(-c2nc(C3CC3)ccc2N2CCOCC2)o1` [Example 318], for which the 50% effective concentration (EC50) is under 400 nM.

Regarding `N#Cc1ccc(-c2nnc(N[C@H]3N=C(c4ccccc4)c4ccccc4NC3=O)o2)c(-c2ccoc2)c1` [Example 319], the EC50 was over 800 nM.

`Cc1noc(C)c1-c1cc(C#N)ccc1-c1nnc(N[C@H]2N=C(c3ccccc3)c3ccccc3NC2=O)o1` [Example 320]: the half-maximal effective concentration (EC50) is over 800 nM.

Consider `O=C1Nc2ccccc2C(c2ccccc2)=N[C@@H]1Nc1nnc(-c2ncc(C3CC3)cc2N2CC3CCC(C2)O3)o1` [Example 321], for which the EC50 is under 400 nM.

For the compound `N#Cc1cc(N2CCOCC2)c(-c2nnc(N[C@H]3N=C(c4ccccc4)c4ccccc4NC3=O)o2)s1` [Example 323], the 50% effective concentration (EC50) was under 400 nM.

As to `N#Cc1ccc(N2CCOCC2)c(-c2nnc(N[C@H]3N=C(c4ccccc4)c4ccccc4NC3=O)o2)n1` [Example 324], the EC50 is under 400 nM.

`N#Cc1cnc(-c2nnc(N[C@H]3N=C(c4ccccc4)c4ccccc4NC3=O)o2)c(N2CCOCC2)c1` [Example 325]: the EC50 is under 400 nM.

`C[C@@H]1CN(c2cc(C#N)cnc2-c2nnc(N[C@H]3N=C(c4ccccc4)c4ccccc4NC3=O)o2)CCO1` [Example 326]: the EC50 was in the range of 400 to 800 nM.

For the compound `CN1CCN(c2cc(C(F)(F)F)cnc2-c2nnc(N[C@H]3N=C(c4ccccc4)c4ccccc4NC3=O)o2)CC1` [Example 327], the concentration giving a half-maximal response (EC50) lay within 400 to 800 nM.

Turning to `O=C1Nc2ccccc2C(c2ccccc2)=N[C@@H]1Nc1nnc(-c2ncc(C(F)(F)F)cc2N2CCC(O)CC2)o1` [Example 328], the half-maximal effective concentration (EC50) was over 800 nM.

For `C[C@H]1CN(c2cc(C#N)cnc2-c2nnc(N[C@H]3N=C(c4ccccc4)c4ccccc4NC3=O)o2)CCO1` [Example 329], the concentration for a half-maximal effect (EC50) was under 400 nM.

As for `Cc1cc(-c2nnc(N[C@H]3N=C(c4ccccc4)c4ccccc4NC3=O)o2)c(N2CCOCC2)s1` [Example 330], the half-maximal effective concentration (EC50) is under 400 nM.

Regarding `N#CCNc1cc(C(F)(F)F)cnc1-c1nnc(N[C@H]2N=C(c3ccccc3)c3ccccc3NC2=O)o1` [Example 331], the EC50 is over 800 nM.

`CS(=O)(=O)c1cnc(-c2nnc(N[C@H]3N=C(c4ccccc4)c4ccccc4NC3=O)o2)c(N2CCOCC2)c1` [Example 332]: the EC50 is over 800 nM.

Regarding `N#Cc1cnc(-c2nnc(N[C@H]3N=C(c4ccccc4)c4ccccc4NC3=O)o2)c(N2C3CCC2COC3)c1` [Example 333], the EC50 lay within 400 to 800 nM.

`COCCNc1sc(C)nc1-c1nnc(N[C@H]2N=C(c3ccccc3)c3ccccc3NC2=O)o1` [Example 335]: the EC50 is under 400 nM.

As to `Cc1nc(-c2nnc(N[C@H]3N=C(c4ccccc4)c4ccccc4NC3=O)o2)c(N2CCOCC2)o1` [Example 337], the EC50 is under 400 nM.

Take `COc1ccccc1-c1nc(-c2nnc(N[C@H]3N=C(c4ccccc4)c4ccccc4NC3=O)o2)c(N2CCOCC2)s1` [Example 342]: the half-maximal effective concentration (EC50) was under 400 nM.

As to `Cc1nc(-c2nnc(N[C@H]3N=C(c4ccccc4)c4ccccc4NC3=O)o2)cs1` [Example 343], the half-maximal effective concentration (EC50) is over 800 nM.

As for `Cc1nc(-c2nnc(N[C@H]3N=C(c4ccccc4)c4ccccc4NC3=O)o2)c(Cl)s1` [Example 344], the EC50 was over 800 nM.

For the compound `Cc1nc(-c2nnc(N[C@H]3N=C(c4ccccc4)c4ccccc4NC3=O)o2)c(C2=CCOCC2)s1` [Example 345, (S)-3-((5-(5-(3,6-dihydro-2H-pyran-4-yl)-2-methylthiazol-4-yl)-1,3,4-oxadiazol-2-yl)amino)-5-phenyl-1,3-dihydro-2H-benzo[e][1,4]diazepin-2-one], the EC50 was under 400 nM.

As to `Cc1nc(-c2nnc(N[C@H]3N=C(c4ccccc4)c4ccccc4NC3=O)o2)c(C2CCOCC2)s1` [Example 346, (S)-3-((5-(2-methyl-5-(tetrahydro-2H-pyran-4-yl)thiazol-4-yl)-1,3,4-oxadiazol-2-yl)amino)-5-phenyl-1,3-dihydro-2H-benzo[e][1,4]diazepin-2-one], the EC50 was under 400 nM.

As for `O=C1Nc2ccccc2C(c2ccccc2)=N[C@@H]1Nc1nnc(-c2ncsc2C2=CCOCC2)o1` [Example 347], the concentration for a half-maximal effect (EC50) is under 400 nM.

As to `O=C1Nc2ccccc2C(c2ccccc2)=N[C@@H]1Nc1nnc(-c2occc2N2CCOCC2)o1` [Example 348], the EC50 is under 400 nM.

Take `O=C1Nc2ccccc2C(c2ccccc2)=N[C@@H]1Nc1nnc(-c2ccnn2-c2ccccc2)o1` [Example 349]: the EC50 is over 800 nM.

Turning to `O=C1Nc2ccccc2C(c2ccccc2)=N[C@@H]1Nc1nnc(-c2cnn(-c3ccccc3)c2)o1` [Example 350], the EC50 fell in the range of 400 to 800 nM.

In the case of `O=C1Nc2ccccc2C(c2ccccc2)=NC1Nc1nnc(-c2ccccc2C2=CCOCC2)o1` (stereo not shown) [Example 353, 3-((5-(2-(3,6-dihydro-2H-pyran-4-yl)phenyl)-1,3,4-oxadiazol-2-yl)amino)-5-phenyl-1,3-dihydro-2H-benzo[e][1,4]diazepin-2-one], the concentration for a half-maximal effect (EC50) was over 800 nM.

With `O=C1Nc2ccccc2C(c2ccccc2)=NC1Nc1nnc(-c2ccccc2C2CCOCC2)o1` (stereo not shown) [Example 354], the EC50 was over 800 nM.

For the compound `O=C1Nc2c(F)cccc2C(c2ccccc2)=N[C@H]1Nc1nnc(-c2ccccc2N2CCOCC2)o1` [Example 355b], the concentration for a half-maximal effect (EC50) was over 800 nM.

Take `O=C1Nc2c(F)cccc2C(c2ccccc2)=NC1Nc1nnc(-c2ccc(N3CCOCC3)cc2)o1` (stereo not shown) [Example 356]: the EC50 was in the range of 400 to 800 nM.

In the case of `N#Cc1cnc(-c2nnc(N[C@H]3N=C(c4ccccc4)c4cccc(F)c4NC3=O)o2)c(N2CCOCC2)c1` [Example 361], the EC50 was under 400 nM.

For `O=C1Nc2ccccc2C(c2ccccc2)=NC1Nc1nnc(-c2ccc(F)cc2)[nH]1` (stereo not shown) [Example 363], the 50% effective concentration (EC50) is over 800 nM.

Consider `N#Cc1ccc(-c2nnc(NC3N=C(c4ccccc4)c4ccccc4NC3=O)[nH]2)cc1` (stereo not shown) [Example 365], for which the concentration for a half-maximal effect (EC50) lay in the range of 400 to 800 nM.

Turning to `O=C1Nc2ccccc2C(c2ccccc2)=NC1Nc1nnc(-c2ccncc2)[nH]1` (stereo not shown) [Example 366], the 50% effective concentration (EC50) was over 800 nM.

Consider `O=C1Nc2ccccc2C(c2ccccc2)=NC1Nc1nnc(-c2ccccc2N2CCOCC2)[nH]1` (stereo not shown) [Example 367], for which the concentration for a half-maximal effect (EC50) was over 800 nM.

With `O=C1Nc2ccccc2C(c2ccccc2)=NC1Nc1ncc(-c2ccc(F)cc2)o1` (stereo not shown) [Example 369], the half-maximal effective concentration (EC50) was over 800 nM.

With `O=C1Nc2ccccc2C(c2ccccc2)=NC1Nc1ncc(-c2ccc(Br)cc2)o1` (stereo not shown) [Example 370], the EC50 is over 800 nM.

In the case of `O=C1Nc2ccccc2C(c2ccccc2)=NC1Nc1ncc(-c2ccccc2)cn1` (stereo not shown) [Example 371], the EC50 was over 800 nM.

On to `O=C1Nc2ccccc2C(c2ccccc2)=NC1Nc1nnc(C2CC2)[nH]1` (stereo not shown) [Example 372], for which the EC50 is over 800 nM.

As to `O=C1Nc2ccccc2C(c2ccccc2)=NC1Nc1cnc(-c2ccc(F)cc2)cn1` (stereo not shown) [Example 373], the concentration giving a half-maximal response (EC50) was over 800 nM.

Consider `O=C1Nc2ccccc2C(c2ccccc2)=NC1Nc1ccc(-c2ccc(F)cc2)nn1` (stereo not shown) [Example 374], for which the 50% effective concentration (EC50) was over 800 nM.

`O=C1Nc2ccccc2C(c2ccccc2)=NC1Nc1ccc(-c2ccncc2)nn1` (stereo not shown) [Example 375]: the concentration giving a half-maximal response (EC50) was over 800 nM.
